The text below walks through data of the NIST ThermoML archive (doi:10.1021/je020113t).

The conditions of this data set: visual observation.

± gives the expanded uncertainty stated by the source.

Regarding `Cc1nccn1C` [1,2-dimethyl-1H-imidazole], for the setting “Crystal”, the Normal melting temperature was 38.4 ± 0.5 °C.
On to `c1c[nH]cn1` [1H-imidazole], for which the Normal melting temperature (Crystal) was 89.10 ± 0.5 °C.
Turning to `Cc1ncc[nH]1` [2-methylimidazole], for the setting “Crystal 1”, the Normal melting temperature came to 146 ± 0.5 °C.
